Values joined by “and” are separate entries in the source; they are usually repeats but may differ in a detail not shown here. Equal entries are not always repeated.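 96-well plates; 48 h exposure; 5 concentrations. Endpoints by linear interpolation between flanking doses. Not reached: highest tested concentration assigned. GI50 marks 50% less growth. TGI is the concentration that stops growth completely.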
Experiments:
Test in all cases: DTP human tumour cell line panel, 48 h
OVCAR-4 ovarian = tested on: OVCAR-4 ovarian
SR leukemia = tested on: SR leukemia
RPMI-8226 leukemia = tested on: RPMI-8226 leukemia
OVCAR-5 ovarian = tested on: OVCAR-5 ovarian
SF-539 CNS = tested on: SF-539 CNS
LOX IMVI melanoma = tested on: LOX IMVI melanoma
NCI-H226 lung = tested on: NCI-H226 lung
DLD-1 colon = tested on: DLD-1 colon
MALME-3M melanoma = tested on: MALME-3M melanoma
SNB-19 CNS = tested on: SNB-19 CNS
HT29 colon = tested on: HT29 colon
DU-145 prostate = tested on: DU-145 prostate
SK-OV-3 ovarian = tested on: SK-OV-3 ovarian
RXF 393 renal = tested on: RXF 393 renal
DMS 273 small cell lung = tested on: DMS 273 small cell lung
HOP-92 NSCLC = tested on: HOP-92 NSCLC
SW-620 colon = tested on: SW-620 colon
SF-295 CNS = tested on: SF-295 CNS
M19-MEL melanoma = tested on: M19-MEL melanoma
EKVX NSCLC = tested on: EKVX NSCLC
786-0 renal = tested on: 786-0 renal
KM12 colon = tested on: KM12 colon
UACC-62 melanoma = tested on: UACC-62 melanoma
M14 melanoma = tested on: M14 melanoma
CAKI-1 renal = tested on: CAKI-1 renal
BT-549 breast = tested on: BT-549 breast
ACHN renal = tested on: ACHN renal
HCT-116 colon = tested on: HCT-116 colon
SNB-75 CNS = tested on: SNB-75 CNS
UACC-257 melanoma = tested on: UACC-257 melanoma
HOP-62 NSCLC = tested on: HOP-62 NSCLC
NCI-H522 lung = tested on: NCI-H522 lung
PC-3 prostate = tested on: PC-3 prostate
MOLT-4 leukemia = tested on: MOLT-4 leukemia
COLO 205 colon = tested on: COLO 205 colon
KM20L2 colon = tested on: KM20L2 colon
OVCAR-8 ovarian = tested on: OVCAR-8 ovarian
NCI-H460 lung = tested on: NCI-H460 lung
A549 NSCLC = tested on: A549 NSCLC
LXFL 529 NSCLC = tested on: LXFL 529 NSCLC
HS 578T breast = tested on: HS 578T breast
MDA-MB-231 breast = tested on: MDA-MB-231 breast
CCRF-CEM leukemia = tested on: CCRF-CEM leukemia
HCC-2998 colon = tested on: HCC-2998 colon
SF-268 CNS = tested on: SF-268 CNS
T-47D breast = tested on: T-47D breast
IGROV1 ovarian = tested on: IGROV1 ovarian
HCT-15 colon = tested on: HCT-15 colon
TK-10 renal = tested on: TK-10 renal
SK-MEL-28 melanoma = tested on: SK-MEL-28 melanoma
HOP-18 NSCLC = tested on: HOP-18 NSCLC
UO-31 renal = tested on: UO-31 renal
K-562 leukemia = tested on: K-562 leukemia
SN12C renal = tested on: SN12C renal
SNB-78 CNS = tested on: SNB-78 CNS
HL-60(TB) leukemia = tested on: HL-60(TB) leukemia
OVCAR-3 ovarian = tested on: OVCAR-3 ovarian
DMS 114 small cell lung = tested on: DMS 114 small cell lung
XF 498 CNS = tested on: XF 498 CNS
SK-MEL-5 melanoma = tested on: SK-MEL-5 melanoma
A498 renal = tested on: A498 renal
NCI-H23 lung = tested on: NCI-H23 lung
U251 CNS = tested on: U251 CNS
SK-MEL-2 melanoma = tested on: SK-MEL-2 melanoma
MCF7 breast = tested on: MCF7 breast
MDA-N = tested on: MDA-N
MDA-MB-435 = tested on: MDA-MB-435

For `CC[C@@]1(O)C(=O)OCc2c1cc1n(c2=O)Cc2c-1nc1ccccc1c2Cl`, the TGI (OVCAR-4 ovarian) was 4.61 µM, the TGI (SR leukemia) was 186 nM and the TGI (RPMI-8226 leukemia) was 1.42 µM. For the same compound, the TGI (OVCAR-5 ovarian) was 3.65 µM, the TGI (SF-539 CNS) was 0.022 µM and the TGI (LOX IMVI melanoma) was 387 nM. It also gave a TGI (NCI-H226 lung) of 0.022 µM, a TGI (DLD-1 colon) of 63.4 µM and a TGI (MALME-3M melanoma) of 12.6 µM. It also gave a TGI (SNB-19 CNS) of 15.5 µM, a TGI (HT29 colon) of 5.62 µM and a TGI (DU-145 prostate) of 104 nM. For the same compound, the TGI (SK-OV-3 ovarian) was 4.29 µM, the TGI (RXF 393 renal) was 116 nM and the TGI (DMS 273 small cell lung) was 0.578 µM. It also gave a TGI (HOP-92 NSCLC) of 2.07 µM, a TGI (SW-620 colon) of 39.7 µM and a TGI (SF-295 CNS) of 511 nM. It also gave a TGI (M19-MEL melanoma) of 3.43 µM, a TGI (EKVX NSCLC) of 33.6 µM and a TGI (786-0 renal) of 126 nM. For the same compound, the TGI (KM12 colon) was 1.83 µM, the TGI (UACC-62 melanoma) was 0.107 µM and the TGI (M14 melanoma) was 318 nM. For the same compound, the TGI (CAKI-1 renal) was 1.99 µM, the TGI (BT-549 breast) was 4.89 µM and the TGI (ACHN renal) was 68.4 nM. It also gave a TGI (HCT-116 colon) of 1.11 µM, a TGI (SNB-75 CNS) of 0.259 µM and a TGI (UACC-257 melanoma) of 7.01 µM. The TGI (HOP-62 NSCLC) was 0.0206 µM, the TGI (NCI-H522 lung) was 1.28 µM and the TGI (PC-3 prostate) was > 100 µM. It also gave a TGI (MOLT-4 leukemia) of 0.113 µM, a TGI (COLO 205 colon) of 27.4 µM and a TGI (KM20L2 colon) of 28.7 µM. For the same compound, the TGI (OVCAR-8 ovarian) was 2.13 µM, the TGI (NCI-H460 lung) was 0.101 µM and the TGI (A549 NSCLC) was 3.76 µM. For the same compound, the TGI (LXFL 529 NSCLC) was 34.7 µM, the TGI (HS 578T breast) was 43.3 µM and the TGI (MDA-MB-231 breast) was > 80.3 µM. The TGI (CCRF-CEM leukemia) was 172 nM, the TGI (HCC-2998 colon) was 9.58 µM and the TGI (SF-268 CNS) was 12.6 µM. For the same compound, the TGI (T-47D breast) was 0.349 µM, the TGI (IGROV1 ovarian) was 16 µM and the TGI (HCT-15 colon) was 39.5 µM. For the same compound, the TGI (TK-10 renal) was 80.8 µM, the TGI (SK-MEL-28 melanoma) was 63.9 µM and the TGI (HOP-18 NSCLC) was 18.3 µM. For the same compound, the TGI (UO-31 renal) was 0.109 µM, the TGI (K-562 leukemia) was > 100 µM and the TGI (SN12C renal) was 0.683 µM. The TGI (SNB-78 CNS) was 87.5 µM, the TGI (HL-60(TB) leukemia) was 0.132 µM and the TGI (OVCAR-3 ovarian) was 4.84 µM. For the same compound, the TGI (DMS 114 small cell lung) was 2060 nM, the TGI (XF 498 CNS) was 2.15 µM and the TGI (SK-MEL-5 melanoma) was 134 nM. The TGI (A498 renal) was 352 nM, the TGI (NCI-H23 lung) was 0.028 µM and the TGI (U251 CNS) was 0.445 µM. It also gave a TGI (SK-MEL-2 melanoma) of 7.72 µM.
For `Cc1nc2c(o1)C(=O)c1ccccc1C2=Nc1ccccc1`, the GI50 (OVCAR-4 ovarian) was 2150 nM, the TGI (OVCAR-4 ovarian) was 6.5 µM and 5.86 µM and the TGI (SR leukemia) was > 93500 nM. The GI50 (RPMI-8226 leukemia) was 4.43 µM, the TGI (RPMI-8226 leukemia) was 11.1 µM and the TGI (OVCAR-5 ovarian) was 11.8 µM. The GI50 (SF-539 CNS) was 1960 nM, the TGI (SF-539 CNS) was 3.66 µM and 5.95 µM and the TGI (MCF7 breast) was 5.47 µM. The TGI (LOX IMVI melanoma) was 5200 nM, the TGI (NCI-H226 lung) was 31.9 µM and the TGI (DLD-1 colon) was 29.2 µM. For the same compound, the GI50 (MALME-3M melanoma) was 1690 nM, the TGI (MALME-3M melanoma) was 3.06 µM and 2.66 µM and the GI50 (SNB-19 CNS) was 11 µM. It also gave a TGI (SNB-19 CNS) of 23 µM, a TGI (HT29 colon) of 33.3 µM and a TGI (DU-145 prostate) of 3330 nM. For the same compound, the TGI (SK-OV-3 ovarian) was 31.2 µM, the TGI (RXF 393 renal) was 3300 nM and the TGI (DMS 273 small cell lung) was 6.1 µM. It also gave a TGI (HOP-92 NSCLC) of 6.07 µM, a GI50 (SW-620 colon) of 3.6 µM and a TGI (SW-620 colon) of 7.86 µM. For the same compound, the GI50 (SF-295 CNS) was 1950 nM, the TGI (SF-295 CNS) was 3880 nM and the GI50 (M19-MEL melanoma) was 1550 nM. For the same compound, the TGI (M19-MEL melanoma) was 3.24 µM and 2.97 µM, the GI50 (EKVX NSCLC) was 7.57 µM and the TGI (EKVX NSCLC) was > 31.6 µM. For the same compound, the TGI (786-0 renal) was > 55800 nM, the TGI (KM12 colon) was 14.4 µM and the GI50 (UACC-62 melanoma) was 2070 nM. For the same compound, the TGI (UACC-62 melanoma) was 3.84 µM and 6.7 µM, the GI50 (M14 melanoma) was 1640 nM and the TGI (M14 melanoma) was 3000 nM and 2110 nM. The TGI (CAKI-1 renal) was 32 µM, the TGI (BT-549 breast) was 3.13 µM and the GI50 (ACHN renal) was 4.72 µM. The TGI (ACHN renal) was > 37700 nM, the GI50 (HCT-116 colon) was 3.35 µM and the TGI (HCT-116 colon) was 5.77 µM. For the same compound, the TGI (SNB-75 CNS) was 3.94 µM and 3.81 µM, the TGI (UACC-257 melanoma) was 5.46 µM and 4.39 µM and the TGI (HOP-62 NSCLC) was 6.05 µM. For the same compound, the GI50 (NCI-H522 lung) was 3.21 µM, the TGI (NCI-H522 lung) was 7.81 µM and 4.27 µM and the TGI (PC-3 prostate) was 6.51 µM. For the same compound, the GI50 (MOLT-4 leukemia) was 4.55 µM and 4.44 µM, the TGI (MOLT-4 leukemia) was 34.5 µM and the TGI (COLO 205 colon) was 27.1 µM. For the same compound, the TGI (KM20L2 colon) was 42 µM, the GI50 (OVCAR-8 ovarian) was 4.16 µM and the TGI (OVCAR-8 ovarian) was 9.66 µM. It also gave a TGI (NCI-H460 lung) of 12.3 µM, a GI50 (A549 NSCLC) of 13.2 µM and a TGI (A549 NSCLC) of 32.3 µM. The TGI (LXFL 529 NSCLC) was 12.3 µM, the TGI (HS 578T breast) was 5.38 µM and the TGI (MDA-MB-231 breast) was 18.5 µM. For the same compound, the GI50 (CCRF-CEM leukemia) was 4.61 µM, the TGI (CCRF-CEM leukemia) was > 65800 nM and the TGI (HCC-2998 colon) was 28.5 µM. For the same compound, the GI50 (SF-268 CNS) was 3.11 µM, the TGI (SF-268 CNS) was > 31.6 µM and the TGI (T-47D breast) was 7.65 µM. For the same compound, the TGI (IGROV1 ovarian) was 20.6 µM, the GI50 (HCT-15 colon) was 3.17 µM and the TGI (HCT-15 colon) was 7.63 µM. For the same compound, the TGI (TK-10 renal) was 41.9 µM, the TGI (SK-MEL-28 melanoma) was 3.91 µM and the GI50 (HOP-18 NSCLC) was 4.27 µM. For the same compound, the TGI (HOP-18 NSCLC) was 3.39 µM and 10.1 µM, the GI50 (UO-31 renal) was 3.66 µM and the TGI (UO-31 renal) was 7.62 µM. The TGI (MDA-N) was 959 nM, the GI50 (K-562 leukemia) was 4.28 µM and the TGI (K-562 leukemia) was > 37.4 µM. For the same compound, the GI50 (SN12C renal) was 2990 nM, the TGI (SN12C renal) was 7.38 µM and 6.18 µM and the TGI (SNB-78 CNS) was 9.13 µM. It also gave a GI50 (HL-60(TB) leukemia) of 3.04 µM, a TGI (HL-60(TB) leukemia) of 11.6 µM and a TGI (MDA-MB-435) of 1090 nM. The GI50 (OVCAR-3 ovarian) was 2500 nM, the TGI (OVCAR-3 ovarian) was 4.52 µM and 8.04 µM and the GI50 (DMS 114 small cell lung) was 1780 nM. For the same compound, the TGI (DMS 114 small cell lung) was 2890 nM and 3690 nM, the TGI (XF 498 CNS) was 7.69 µM and 6.99 µM and the GI50 (SK-MEL-5 melanoma) was 1730 nM. For the same compound, the TGI (SK-MEL-5 melanoma) was 3100 nM and 2720 nM, the GI50 (NCI-H23 lung) was 2310 nM and the TGI (NCI-H23 lung) was 6.17 µM and 6.48 µM. For the same compound, the TGI (U251 CNS) was 3.12 µM and 3.7 µM, the GI50 (SK-MEL-2 melanoma) was 3.62 µM and the TGI (SK-MEL-2 melanoma) was 2.95 µM.

Source: PubChem BioAssay (NCI)
